Paper PMC11272598, “RG7774 (Vicasinabin), an orally bioavailable cannabinoid receptor 2 (CB2R) agonist, decreases retinal vascular permeability, leukocyte adhesion, and ocular inflammation in animal models” (Frontiers in Pharmacology, 2024)

Assays:
[1] = system: LPS-induced vascular leakage; test: LPS-induced vascular permeability in mice with EIU (fluorophotometry); type: in vivo, C57Bl6/J mice
Description: Twenty-four female C57Bl6/J mice, 10 weeks old and weighing 18–20 g (Charles River, Sulzfeld, Germany) were housed in individually ventilated GM500 cages (Tecniplast, Pontremoli, Italy) with a maximum density of n = 4 mice with the same litter and sex. The room was kept at 20°C–24°C with 50%–60% humidity and a 12/12 h light-dark cycle. Animals were held on a standard mouse diet with ad libitum access to food and water.
Mice were anesthetized with isoflurane 3% in 100% O2, a drop of 1% Novesin 0.4% (Omnivision, Pucheim, Germany) and a drop of Tropicamide 1% w/v (Bausch + Lomb Incorporated, Kingston, United Kingdom). Eyes were subsequently cleaned with povidone iodine 5% Ophthalmic Prep Solution (Alcon, Geneva, Switzerland) and were immediately pre-punctured with a 30-gauge needle. Both eyes were injected with a single 1 µL IVT injection of 1 ng LPS (Sigma-Aldrich, St. Louis, MO, United States) or a single injection of Dulbecco’s phosphate buffered saline (PBS) (Fisher Scientific, Schwerte, Germany) (vehicle control) using a Nanofil syringe connected to a 34-gauge needle.
Vehicle solution [w/w] was prepared using 0.1% hydroxyethyl cellulose, 1.0% polysorbate 80, 0.18% methylparaben, and 0.02% propylparaben in 10 mM citrate (pH 6.0). RG7774 (0.6 and 2.0 mg/mL) was added to freshly prepared vehicle, stirred on a magnetic stirrer for at least 15 min, and a volume of 5 mL/kg was administered directly to the stomach of each EIU mouse using a 1 mL syringe with an oral gavage needle. Gavage was performed twice daily (6 mg/kg/day BID and 20 mg/kg/day BID) on the evening and morning prior to LPS injection, on the evening after LPS injection, and on the morning before fluorophotometry.
Mice were anesthetized 24 h after receiving LPS or vehicle control using subcutaneous (SC) injections of fentanyl 0.05 mg/kg, medetomidine 0.5 mg/kg, and midazolam 5 mg/kg. […] Fundus infrared and fundus fluorescein angiography (FFA) images of both eyes were recorded 30 min later using optical coherence tomography (OCT)/FFA (Spectralis HRA-OCT, Heidelberg Engineering, Heidelberg, Germany) with a 55° lens focused on the optic nerve with the optic disc in the center of the image to obtain sharp images of the fundus. […] The supernatant (10 µL) was diluted in 990 µL PBS in a microcuvette (PS Micro Photometer Cuvette 2 mL, 10 mm × 10 mm × 45 mm; LP Italiana, Milan, Italy) and samples were analyzed in duplicate using the FM-2 Fluorotron (450–490 nm excitation; 520–600 nm emission detection). […]
To quantify fluorotron measurements, raw files were generated, exported as txt. files, and plotted using Microsoft Excel. The average area under the curve (AUC) was calculated for 5 steps in each of the regions of the scans corresponding to retina, vitreous, and anterior chamber peaks. […]

[2] = system: retinal microglia migration; test: Laser-induced CNV in rats, microglia volume on laser lesions; type: in vivo, Brown Norway rats
Description: Right eyes were transferred to a petri dish containing 10% neutral-buffered formalin (NBF) and fixed for 5 min at RT. Eyes were prepared in PBS^−/– by removing the anterior segments and carefully separating the retinas from the posterior segments (retinal pigment epithelium/choroid and sclera). Dissected retinas were cut into petals, transferred to 2 × 24 well plates containing fresh 10% NBF solution, and fixed for 2 h at RT. […]
Microglia migration towards laser-injured retinal regions was quantified from 3D RGB-images (CZI-files) of the fluorescently labeled retinal samples, a workflow and image analytics tool was applied that allowed a semi-automated volumetric quantitation of Iba1-positive pixel per image frame integrated over the Z-dimension. […] Subsequently, TIFF images were analyzed using IDL (Interactive Data Language, Version 6.4) in combination with Excel 2010 to compute RGB-channel-dependent threshold images (pdf-files) with a histogram between 1–255 A.U. pixel intensity. […] The sum of pixels displaying the determined threshold intensity or higher was calculated and finally integrated over the Z-dimension of the 3D image.

Cn1nnnc1Cn1nnc2c(N3CC[C@H](O)C3)nc(C(C)(C)C)nc21 [RG7774, (S)-1-(5-tert-butyl-3-[(1-methyl-1H-tetrazol-5-yl)methyl]-3H-[1,2,3]triazolo[4,5-d]pyrimidin-7-yl)pyrrolidin-3-ol]
reduction of LPS-induced vascular leakage in the retina versus vehicle control ([1]; 6 mg/kg/day oral BID): 102% | reduction of LPS-induced vascular leakage in the vitreous ([1]; 6 mg/kg/day oral BID): 74% | reduction of LPS-induced vascular leakage in the retina versus vehicle control ([1]; 20 mg/kg/day oral BID): 106% | reduction of LPS-induced vascular leakage in the vitreous ([1]; 20 mg/kg/day oral BID): 76% | reduction of microglia volumes in lasered versus non-lasered regions ([2]; 3 mg/kg oral gavage): 25% | reduction of microglia volumes in lasered versus non-lasered regions ([2]; 10 mg/kg oral gavage): 41%
